Values quoted from earlier work, collected in article PMC9389804 (Journal of Hematology & Oncology, 2022).

Parameters: method as in PMID 29567798
Conditions: median follow-up of 5 years; cited from earlier work

Cc1ccc(C(=O)Nc2ccc(CN3CCN(C)CC3)c(C(F)(F)F)c2)cc1C#Cc1cnc2cccnn12 [ponatinib]
incidence of arterial occlusive and venous thrombotic events: 31.0%
